Measurements: US12576107B2, “Methods of treating chronic inflammatory diseases” (METIMEDI PHARMACEUTICALS CO., LTD., priority 2018, dated 2026)

How the values were obtained:
[1] = tested on: Indomethacin-induced Crohn's disease rats; assay: Crohn's disease model, oral Indomethacin; format: in vivo, Sprague-Dawley (SD) rats; conditions: Four-week after treatment
Procedure: (§1) Animals. […] Six-week old male Sprague-Dawley (SD) rats were obtained from Samtako Co. (Osan, Gyeonggi-do, Republic of Korea) and bred under specific-pathogen-free (SPF) conditions. All animals were maintained in a 12-hour light/dark cycle at 22-25° C. with free access to food and water.
(§2) Agents and animal model. To induce Crohn's disease and colitis, Indomethacin was purchased from Sigma Chemical (St. Louis, Missouri, USA) and was dissolved in saline. […] Two models of inflammatory bowel disease were used. Crohn's disease was induced by oral administration of Indomethacin (7 mg/kg), and colitis was induced by subcutaneous injections of Indomethacin (7 mg/kg) daily at a 24 h intervals (FIGS. 40 and 42).
(§3) Histological analysis. The fixed flat-mounts were dehydrated in a graded series of ethanol and embedded in paraffin.

toll like receptor 4 = assay: Immunocytochemistry of toll like receptor 4 in ARPE-19 cells; format: cell-based, Human; conditions: 2.5 mM, hypoxia
Procedure: (§4) Human retinal pigment epithelium cell line, ARPE-19, was purchased from American Type Culture Collection (Manassas, VA, USA). The ARPE-19 cells were maintained in RPMI1640 containing 10% fetal bovine serum (Life Technologies, Gaithersburg, MD, USA), 100 IU/ml penicillin, and 100 μg/ml streptomycin (Welgene, Daegu, South Korea).
(§5) ARPE-19 and SK-N-SH cells were fixed on bio-coated coverslips (BD bioscience, San Jose, CA, USA) by 4% PFA for 20 min and then incubated with the primary antibodies for 15 h. The primary antibodies were as follows: HIF-1a (1:300, BD Biosciences, San Jose, CA, USA); LDH-A (1:300, Santa Cruz Biotechnology, Santa Cruz, CA, USA); LDH-B (1:300, Santa Cruz Biotechnology, Santa Cruz, CA, USA); NF-κB (1:300, Santa Cruz Biotechnology, Santa Cruz, CA, USA); TLR-4 (1:300, Santa Cruz Biotechnology, Santa Cruz, CA, USA); apoE (1:200, Santa Cruz Biotechnology, Santa Cruz, CA, USA). After PBS wash, the cells were incubated with anti-mouse secondary biotinylated antibody (1:2000, Vector Laboratorie, Burlingame, CA, USA) and visualized with streptavidin conjugated to Fluorescein (Vector Laboratorie, Burlingame, CA, USA). […] Confocal fluorescence images were obtained with confocal laser scanning microscopy (LSCM, Nikon A1+, Tokyo, Japan) under a 60× oil immersion lens.

[2] = tested on: hypoxia inducible factor-1α (HIF-1α); assay: Immunocytochemistry of HIF-1α in ARPE-19 cells; format: cell-based, Human; conditions: 2.5 mM
Procedure: as §4, §5

Apolipoprotein E = assay: Immunocytochemistry of drusen marker Apolipoprotein E in ARPE-19 cells; format: cell-based, Human; conditions: 2.5 mM, hypoxia
Procedure: as §4, §5

[3] = tested on: LPS-induced periodontal disease rats; assay: Periodontal disease model, intragingival injection of LPS; format: in vivo, Sprague-Dawley (SD) rats; conditions: 2 mg/kg daily subcutaneous 21 days
Procedure: Animals. […] Eight-week old male Sprague-Dawley (SD) rats were obtained from Samtako Co. (Osan, Gyeonggi-do, Republic of Korea) and bred under specific-pathogen-free (SPF) conditions. All animals were maintained in a 12-hour light/dark cycle at 22-25° C. with free access to food and water.
Dissolve 1 mg of LPS powder in 100 μl of saline. Keep the tubes on ice if LPS is going to be used fresh. For long storage, use screw cap vials are preferred. The aliquots were stored in a deep freezer (−20° C.). Calcium lactate was purchased from Sigma Aldrich (St. Louis, MO, USA).
Animal model for periodontal disease. Periodontal disease was induced by intragingival injection of LPS (1 mg/100 μl) in sterile saline. A fine hypodermic needle was inserted at the mesiolateral aspect of the first right mandibular molar and the tip moved distally so that the injection was made at the interdental papilla between the first and second molars. The injection was slowly made, and the needle held in place for 10 seconds post injection to ensure that the LPS was not lost through the needle track.
Histological analysis. […] Mount with mounting medium.

[4] = tested on: High cholesterol diet supplied ApoE-deficient mice (Atherosclerosis); assay: Vascular disease (atherosclerosis) model, high fat diet ApoE-deficient mice; format: in vivo, BALB/c ApoE^shi mice
Procedure: Animals. […] Fibe-week old male BALB/c ApoE^shi mice were obtained from Japan SLC Inc. (Shizuoka, Japan) and bred under specific-pathogen-free (SPF) conditions. All animals were maintained in a 12-hour light/dark cycle at 22-25° C. with free access to food and water.
Calcium lactate was purchased from Sigma Aldrich (St. Louis, MO, USA).
Animal model for vascular disease. BALB/c ApoE^shi species is used for spontaneous induction of vascular disease. In this investigation, a high fat (40%) diet was provided for 4 weeks to induce strong atherosclerosis.
Histological analysis. The thoracic aorta was transected, and a half of the aorta was fixed in 10% neutral buffer formalin fixative solution. Then, histological analysis was performed. Histological analysis was performed with H&E and Oil red O staining. Aortic wall thickness, atherosclerotic plaque areas, foam cell numbers, and lipidated regions were analyzed.
Statistical analysis. Statistical analysis was performed using SPSS statistics, and the results were analyzed using Student t-test. Histologic analysis was performed using the Mann-Whitney method. P<0.05 was considered statistically significant.

[5] = tested on: Indomethacin-induced colitis rats; assay: Colitis model, subcutaneous Indomethacin; format: in vivo, Sprague-Dawley (SD) rats; conditions: Four-week after treatment
Procedure: as §1, §2, §3

nuclear factor-kappa B = assay: Immunocytochemistry of nuclear factor-kappa B in ARPE-19 cells; format: cell-based, Human; conditions: 2.5 mM, hypoxia
Procedure: as §4, §5

[6] = 2 mg/kg daily subcutaneous, male ApoE-deficient mice, mean ± S.E.M.
[7] = male ApoE-deficient mice, n = 8, mean ± S.E.M.

CC(O)C(=O)[O-].CC(O)C(=O)[O-].[Ca+2] (centres unmarked) [calcium lactate]
transmural inflammation and linear ulceration in the intestinal tissues ([1]; 2 mg/kg daily subcutaneous): clearly decreased
morphology of intestinal tissues vs. normal control [1]: morphologically recovered
inflammatory factor (toll like receptor 4), immunocytochemistry (toll like receptor 4): decreased
hypoxia inducible factor-1α (HIF-1α), immunocytochemistry [2]: decreased
drusen marker (Apolipoprotein E), immunocytochemistry (Apolipoprotein E): decreased
ligaments and gingiva around the root of tooth (Masson's trichrome) [3]: recovered
morphology of the upper gum (Masson's trichrome) [3]: recovered
ATHEROSCLEROTIC PLAQUE AREAS [4, 6]: 0.10 ± 0.03^++ mm^2
FOAM CELL NUMBERS [4, 6]: 39.00 ± 10.13^+ cells/mm^2
LIPID DEPOSITED REGIONS [4, 6]: 0.09 ± 0.03^++ mm^2
MEAN AORTA WALL THICKNESS [4, 6]: 85.83 ± 8.70^+ μm
atherosclerotic lesions of aorta (H&E, oil red O) ([4]; ApoE-deficient mice): decreased
pathogenic factors cholesterol (TCHO), LDL cholesterol (LDL), triglycerides (TG), HDL-cholesterol (HDL) ([4]; ApoE-deficient mice, blood): not controlled
HDL (clinical blood biochemistry) [4, 7]: 197.2 ± 3.7 mg/dL
LDL (clinical blood biochemistry) [4, 7]: 1537.1 ± 14.2 mg/dL
TCHO (clinical blood biochemistry) [4, 7]: 2328.0 ± 56.7 mg/dL
TG (clinical blood biochemistry) [4, 7]: 54.8 ± 2.8 mg/dL
Superficial ulceration, polyp, and inflammation in the intestinal tissues ([5]; 2 mg/kg daily subcutaneous): clearly decreased
morphology of intestinal tissues vs. normal control [5]: morphologically recovered
inflammatory factor (nuclear factor-kappa B), immunocytochemistry (nuclear factor-kappa B): decreased
